Results from patent publication US20040077549A1, “Inhibitors of the E2F-1/cyclin interaction for cancer therapy” (priority 2000, published 2004).
Read-outs that look alike come from different tables or passages of the source. Where a SMILES comes first, the peptide text is derived from it. Bridges are numbered along the chain shown (N, C = ends). Where no end group is shown, it is not given here. [ ]: non-standard residue; d: D form.

Experiments:
[1] = biological target: E2F-1/Cyclin A interaction (Homo sapiens, UniProt P20248); test: E2F-1/Cyclin A/cdk2 ELISA; format: binding
Experimental: An ELISA was developed to identify antagonists of E2F-1/Cyclin A interaction. This method is based on interactions between three proteins, E2F-1, Cyclin A and cdk2 and is analyzed colorimetrically. This assay was used to determine IC50 values for various synthetic peptides that were used in biological experiments and for SAR studies.
This assay allows determination of IC50 values for various synthetic peptides that were used in biological experiments or for SAR studies.
Nunc Immulon II ELISA plates are coated overnight at 4° C. with 250 μL of […] anti-GST antibody (Pharmacia Biotech) in bicarbonate buffer. Following five washes with wash buffer consisting of 50 mM Tris (pH=7.5), 0.15 M NaCl, and 0.01% Tween-20 (TBST), non-specific sites were blocked for 2 hr at room temperature with 300 μL of assay buffer consisting of 50 mM HEPES (pH=7.5), 0.15 M NaCl, 0.1% Triton X-100, and 5% bovine serum albumin (BSA). Plates were then washed five times in TBST, aspirated dry, and treated with 100 μL of GST-E2F-1 in TBS (25 nM). GST-E2F-1 was incubated at RT for at least 1 hr with non-specific binding (NSB) control wells receiving assay buffer with no protein. Plates were washed five times in TBST and multiple concentrations of test compounds diluted in assay buffer were co-incubated with 5 nM Cyclin A/cdk2 diluted in assay buffer. The Cyclin A/cdk2 complex was freshly prepared by mixing a 1:1 ratio of the two proteins in TBS at 4° C. for 30 min prior to addition to the assay plate. Following incubation for 2 hr at RT, plates were washed five times in TBST, and 100 μL of a 1:500 dilution of a rabbit anti-cdk2 antibody (Santa Cruz) diluted in assay buffer and were added to all wells. Following incubation for at least 1 hr at RT or overnight at 4° C., the plates were washed five times in TBST and 100 μL of a 1:1000 dilution of a HRP-conjugated anti-rabbit IgG antibody (Pierce) were added to all wells. Following a half hour incubation at RT, the plates were washed five times in TBST, aspirated dry, and developed by the addition of 100 μL of a HRP substrate ABTS prepared in sodium citrate buffer (pH=4.2). After 10-15 min, absorbance is read using a microplate reader at 405 nm.

U2OS cells [2] = test: Uptake and intracellular compartmentalization (fluorescence microscopy), U2OS; format: cell-based, Human; conditions: 30 and 100 μM, 24 hr
Experimental: (§1) Peptide Treatment and Fluorescence Microscopy. 4×10^4 cells/well were plated on a 48 well plate at 10% FCS and cultured overnight. […] For detection of fluorescein-labeled peptides, cells were rinsed once with PBS (pH=7.3) and visualized using a fluorescence microscope (Axiovert 135 at 320×).
(§2) Uptake and Intracellular Compartmentalization of Tat Peptides. The internalization of the Tat-mt peptide labeled with fluorescein maleimide on the cysteine residue was investigated. The labeled peptide was verified by mass spectrometry and purified by HPLC before use. […] We further repeated the experiments with incubation of the peptide at 30 and 100 μM for 24 hr in osteosarcoma U2OS cells. […] The peptide was tested under the same conditions after direct labeling with fluorescein maleimide. No variation in the amount and localization of the internalized peptide was observed as compared with the Tat-peptide.

MDA-MB-435 cells [3] = test: Uptake and intracellular compartmentalization (fluorescence microscopy), MDA-MB-435; format: cell-based, Human; conditions: MDA-MB-435, after 30 min of incubation
Experimental: as §1, §2

U2OS cells [4] = test: Growth inhibition (MTS assay), U2OS; format: cell-based, Human; conditions: for IC50: 24 hr, MTS; for cell morphology: beginning at about 3 hr post-treatment; for inhibition as measured by the MTS assay: asynchronous culture of U2OS
Source text: (§3) Evaluation of Growth Inhibition.

HCT-116 cells = conditions: read-out: IC50 growth inhibition; HCT-116, 24 hr, MTS
Experimental: (§4) MDA-MB-435, U2OS, A549, MDA-MB-231 cells were maintained in DMEM supplemented with 10% FCS. SW480 and HCT-116 were grown in RPMI 1640 supplemented with 10% FCS.
(§5) Evaluation of Growth Inhibition. 3×10^3 cells/well were plated on a 96 well plate at 10% FCS and cultured overnight. The culture medium was discarded, and the cells were washed once with Opti-MEM. The cell monolayers were incubated at 37° C. with peptide solutions at various concentrations for 24 hr. The growth inhibition was evaluated using solutions composed of 3-(4,5-dimethylthiazol-2-yl)-5-(3-carboxymethoxyphenyl)-2-(4-sulfophenyl)-2H-tetrazolium; MTS (from Promega) and phenazine methosulfate; PMS (from Sigma).

SW480 cells = conditions: read-out: IC50 growth inhibition; SW480, 24 hr, MTS
Experimental: as §4, §5

HeCat cells = conditions: read-out: IC50 growth inhibition, 24 hr, MTS
Experimental: as §5

MDA-MB-435 cells [5] = test: Growth inhibition (MTS assay), MDA-MB-435; format: cell-based, Human; conditions: MDA-MB-435, 24 hr
Source text: as §3

Rat1 cells = conditions: read-out: IC50 growth inhibition; Rat1, 24 hr, MTS
Experimental: as §5

WI38/VA13 SV40 cells = conditions: read-out: IC50 growth inhibition; WI38/VA13 SV40, 24 hr, MTS
Experimental: as §5

MDA-MB-231 cells = conditions: read-out: IC50 growth inhibition; MDA-MB-231, 24 hr, MTS
Experimental: as §4, §5

A549 cells = test: Growth inhibition (MTS assay), A549; format: cell-based, Human; conditions: A549, 24 hr
Source text: as §3

[6] = E2F-1/Cyclin A/cdk2 ELISA, read-out: IC50
[7] = cyclic peptides, read-out: ELISA IC50
[8] = cyclized between side-chain amino group of Lys* and carboxyl group of Gly*, read-out: IC50 Cyclic
[9] = linear peptide, read-out: IC50 Linear
[10] = original identified sequences (linear), read-out: IC50

`CC(=O)N[C@@H](CCCCN)C(=O)N[C@@H](CCCNC(=N)N)C(=O)N[C@H]1CCCCNC(=O)CNC(=O)[C@H](Cc2ccccc2)NC(=O)[C@H](CC(C)C)NC1=O` [compound 4, Ac-Lys-Arg-(Lys-Leu-Phe-Gly)] (Ac-KRKLFG; lactam 3-C) showed an IC50 [1, 6] of 20 nM, an IC50 [1, 7] of 20 nM and an IC50 [1, 8] of 20 nM.
“FluMalCXYGRKKRRQRRRG PVKARLDL [FITC-Tat-mt]” was tested, and the “penetration to the nucleus” value (U2OS cells [2]) was 100% and the intracellular localization (MDA-MB-435 cells [3]) was “mainly recovered from the nucleus with a nucleolar accumulation”.
Compound `CC(=O)N[C@@H](CCCN=C(N)N)C(=O)N[C@@H](CCCCN)C(=O)N[C@@H](CC(C)C)C(=O)N[C@@H](Cc1ccccc1)C(=O)NCC(=O)O` [Ac-Arg-Lys-*Leu-Phe-Gly* (Linear), Ac-Arg-Lys-*Leu-Phe-Gly*] has an IC50 [1, 9] of 30000 nM.
“YGRKKRRQRRRGPVKRRLDL [Tat-linear, YGRKKRRQRRRG PVKRRLDL]” was tested, and the IC50 (U2OS cells [4]; U2OS) was 28 to 40 µM, the cell morphology (U2OS cells [4]; U2OS) was “rounded morphology” and the “inhibition as measured by the MTS assay” value (U2OS cells [4]) was “dose-dependent inhibition”. It also gave an IC50 [1] of 100 to 1000 nM, an IC50 (HCT-116 cells) of 80 µM and an IC50 (SW480 cells) of 26 µM. It also gave an IC50 (HeCat cells) greater than 100 µM, an IC50 (MDA-MB-435 cells [5]) of 48 to 50 µM and an IC50 (Rat1 cells) greater than 100 µM.
`CC(C)C[C@@H]1NC(=O)[C@@H](NC(=O)[C@H](CCCNC(=N)N)NC(=O)[C@H](CCCCN)NC(=O)[C@H](C)NC(=O)[C@H]2CCCN2)CCCCNC(=O)CNC(=O)[C@H](Cc2ccccc2)NC1=O` [compound 2, Pro-Ala-Lys-Arg-(Lys-Leu-Phe-Gly)] (H-[dP]AKRKLFG; lactam 5-C) showed an IC50 [1, 6] of 1 nM, an IC50 [1, 7] of 1 nM and an IC50 [1, 8] of 1 nM.
`CC(=O)N[C@@H](C)C(=O)N[C@@H](CCCCN)C(=O)N[C@@H](CCCNC(=N)N)C(=O)N[C@H]1CCCCNC(=O)CNC(=O)[C@H](Cc2ccccc2)NC(=O)[C@H](CC(C)C)NC1=O` [compound 3, Ac-Ala-Lys-Arg-(Lys-Leu-Phe-Gly)] (Ac-AKRKLFG; lactam 4-C) was tested, and the IC50 [1, 7] was 10 nM and the IC50 [1, 8] was 10 nM.
“Ac-KRKLFG [Ac-Lys-Arg-Lys-*Leu-Phe-Gly* (Linear), Ac-Lys-Arg-Lys-*Leu-Phe-Gly*]” showed an IC50 [1, 9] of 1000 nM.
In the case of SACRNLFG [reference compound], the IC50 [1, 10] is reported as 200 nM.
“PAKRKLFG [Pro-Ala-Lys-Arg-Lys-Leu-Phe-GIy]” was tested, and the IC50 [1, 9] was 100 nM and the IC50 [1, 10] was 100 nM.
With YGRKKRRQRRRG [Tat, reference compound] the “failed to cause any morphological changes and MTS reading up to” value (U2OS cells [4]; U2OS) was greater than 300 μM.
For “Ac-AKRKLFG [Ac-Ala-Lys-Arg-Lys-*Leu-Phe-Gly*]”, the IC50 [1, 9] was 200 nM.
In the case of `CC(C)C[C@@H]1NC(=O)[C@@H](NC(=O)[C@H](CCCNC(=N)N)NC(=O)[C@H](CCCCN)NC(=O)[C@H](C)NC(=O)[C@@H]2CCCN2C(=O)CNC(=O)[C@H](CCCNC(=N)N)NC(=O)[C@H](CCCNC(=N)N)NC(=O)[C@H](CCCNC(=N)N)NC(=O)[C@H](CCC(N)=O)NC(=O)[C@H](CCCNC(=N)N)NC(=O)[C@H](CCCNC(=N)N)NC(=O)[C@H](CCCCN)NC(=O)[C@H](CCCCN)NC(=O)[C@H](CCCNC(=N)N)NC(=O)CNC(=O)[C@@H](N)Cc2ccc(O)cc2)CCCCNC(=O)CNC(=O)[C@H](Cc2ccccc2)NC1=O` [Tat-cyclic, YGRKKRRQRRRG PAKR(KLFG)] (H-YGRKKRRQRRRGPAKRKLFG; lactam 17-C), the IC50 (WI38/VA13 SV40 cells) is reported as 6 to 7 µM, the IC50 (U2OS cells [4]; U2OS) is reported as 6 to 7 µM and the cell morphology (U2OS cells [4]; U2OS) is reported as “rounded morphology”. The “inhibition as measured by the MTS assay” value (U2OS cells [4]) was “dose-dependent inhibition”, the IC50 [1] was 100 to 1000 nM and the IC50 (MDA-MB-231 cells) was 6 to 7 µM. It also gave an IC50 (A549 cells) of 26 to 46 µM and an IC50 (MDA-MB-435 cells [5]) of 6 to 7 µM.
